Results from EP0101294B1, “Composition for protecting and healing gastro-duodenal mucosa and the liver of mammals” (THE REGENTS OF THE UNIVERSITY OF CALIFORNIA, priority 1982, dated 1984).
Marks after values point to notes of the source that are not given here. Values belong to the compound of their own block, whether it stands above or below them.

Legend:
Type in all cases: in vivo, Spraque-Dawley rats
gastric mucosa [1] = assay: Study 4: linoleic acid mucosal protection against ethanol; conditions: 3 hours after ethanol
Experimental: Twenty-four hours prior to the experimentation the animals were fasted in wire-bottomed cages to prevent coprophagy.
The rats were given intragastric treatment by peroral tube 1 ml of PL solution; 1 ml of the PL solution containing 120 mM linoleic acid (LLC) or 240 mM LLC; or 1 ml of 240 mM oleic acid solubilized in 5 mM PL. […] Macroscopic and histologic mucosal changes were evaluated as in the studies with arachidonic acid.

gastric mucosa [2] = assay: Study 6: arachidonic and linoleic acid mucosal protection against acetylsalicylic acid; conditions: for Macroscopic mucosal changes (lesion index, number of lesions x severity): 1 ml 120 mM AA or 240 mM LLC in PL 1 hour before 200 mg/kg aspirin intragastrically, 4 hours after acetyl salicylic acid; for Histologic evaluation: deep necrotic lesions / Mucosa by scanning electromicroscopy: 4 hours after aspirin, 120 mM AA or 240 mM LLC pretreatment
Experimental: (§1) The animals used in the examples were Spraque-Dawley rats (225 to 250 grams bodyweight). Twenty-four hours prior to the experimentation the animals were fasted in wire-bottomed cages to prevent coprophagy.
Rats were given intragastric treatment by peroral tube with 1 ml of PL solution, 1 ml of PL solution containing 120 mM arachidonic acid (AA), or 1 ml of PL solution containing 240 mM linoleic acid (LLC). One hour after such treatment a suspension of 200 mg/kg bodyweight of aspirin in 0.1 n HCI containing 1% methyl cellulose was administered intragastrically in 1 ml volume. The animals were sacrified 4 hours after acetyl salicylic acid administration.
• 1) Macroscopic quantitation of mucosal changes based on scoring system estimating presence or absence of hemorrhagic lesions, their number and severity graded on arbitrary scale 1 to 4. Lesion index, expressed as an average score (number of lesionsxseverity) was estimated per each group of animals. • 2) Mucosal histology • 3) Scanning electron microscopy

gastric mucosa [3] = assay: Study 1: arachidonic acid mucosal protection 3 hours after ethanol, computerized analysis of hemorrhagic area; conditions: percent of total glandular mucosal area
Experimental: as §1
Animals were given by gavage 1 ml of either saline, or 5 mM PL solution in saline, or 1 ml of the PL-saline solution containing arachidonic acid in 30, 60 and 120 mM concentrations respectively. One-half hour or 1 hour later, 2 ml of absolute ethanol were instilled into the stomach by gavage. Three hours later the animals were sacrificed and their stomachs removed.
A camera with 100 mm macro lens was used to photograph the mucosal surface of the stomach. The same type of film and identical conditions of specimen distance from the lens, light intensity and film development were used throughout the study. Color slides were evaluated by a computerized image analysis. Each slide was converted to a black-and-white video image consisting of 65,000 points. White represented normal gastric mucosa, while gray or black represented hemorrhagic changes. […] Absolute white was given a 255 value while absolute black was given a value of 0. Boundaries delineating the glandular mucosa were drawn on the digital video image with a sonic pen. All spatial and contrast information was stored on a magnetic disk. Each glandular mucosal area was classified interactively by slicing the spectrum of mucosal values into 2 or more subgroups and by displaying the resultant simplified digital image for verification with the more complex analog photographic input. Once a classification scheme was established, a spatial rendition of the picture's point was printed and plotted to scale on paper. A summary of the computer results was also printed and included boundary values for each gray-level slice and the absolute and relative areas of each class. The areas of hemorrhagic changes were expressed as the percentage of the entire gastric glandular mucosal area.

gastric mucosa [4] = assay: Study 2: arachidonic acid mucosal protection 15 hours after ethanol, computerized analysis of hemorrhagic area; conditions: 1 ml 120 mM AA (37 mg) in PL intragastric 1 hour before 2 ml ethanol; evaluated 15 hours after ethanol; percent of total glandular mucosal area
Experimental: as §1
One ml of 120 mM arachidonic acid solution (37 mg arachidonic acid) or 5 mM PI solution was instilled into the stomach 1 hour prior to the intragastric administration of 2 ml ethanol. The animals were killed 15 hours after ethanol administration and their stomachs were examined.
A camera with 100 mm macro lens was used to photograph the mucosal surface of the stomach. The same type of film and identical conditions of specimen distance from the lens, light intensity and film development were used throughout the study. Color slides were evaluated by a computerized image analysis. Each slide was converted to a black-and-white video image consisting of 65,000 points. White represented normal gastric mucosa, while gray or black represented hemorrhagic changes. […] Absolute white was given a 255 value while absolute black was given a value of 0. Boundaries delineating the glandular mucosa were drawn on the digital video image with a sonic pen. All spatial and contrast information was stored on a magnetic disk. […] The areas of hemorrhagic changes were expressed as the percentage of the entire gastric glandular mucosal area.

gastric mucosa [5] = assay: Study 3: intragastric versus intrajejunal arachidonic acid, pylorus ligated, ethanol-induced gastric mucosal injury; conditions: 1 hour before 2 ml ethanol, evaluated 2 hours after ethanol
Experimental: as §1
The next series of experiments was designed to compare the effect of intragastric to intrajejunal pretreatment with arachidonic acid on ethanol-induced gastric mucosal injury. The animals were anesthetized with nembutal (50 mg nembutal per kg body weight intraperitoneally), their abdomens were opened and either 1 ml of 120 mM arachidonic acid or 5 mM PL was installed intragastrically or 1 ml of 120 mM arachidonic acid intrajejunally with a polyethylene catheter introduced through a small duodenal incision. The pylorus was ligated immediately after solution instillation. One hour later the gastric contents were removed and 2 ml of ethanol were instilled through the catheter. The stomach was examined 2 hours later.
A camera with 100 mm macro lens was used to photograph the mucosal surface of the stomach. The same type of film and identical conditions of specimen distance from the lens, light intensity and film development were used throughout the study. Color slides were evaluated by a computerized image analysis. […] The areas of hemorrhagic changes were expressed as the percentage of the entire gastric glandular mucosal area.

gastric mucosa [6] = assay: Histological studies of gastric mucosa (light microscopy)
Experimental: Mucosal specimens 5 mm in width were cut from the forestomach to the pylorus. The specimens were obtained (a) 60 minutes after intragastric administration of 1 ml of solution containing either saline, PL or 120 mM arachidonic acid or (b) 3 hours after intragastric instillation of 2 ml of ethanol in animals which had received 1 ml of solution containing either saline or PL or 120 mM arachidonic acid 1 hour before ethanol. Specimens were fixed in buffered 10% formalin and stained. Coded specimens were examined "blindly" by light microscopy. In the histological evaluation special attention was paid to the continuity of the surface epithelium layer, presence or absence of hemorrhagic erosions, edema of the submucosa and infiltration with polymorphonuclear neutrophils.

gastric mucosa [7] = assay: Scanning electron microscopy of gastric mucosa after ethanol; conditions: 3 hours after ethanol, arachidonic acid pretreated rats
From the text: Gastric mucosal specmens, fixed in 3.5% buffered glutaraldehyde were processed routinely for scanning electronmicroscopy and evaluated in a JOEL-35 scanning electronmicroscope operated at 20 kV.

PGE2 = PGE2 measurement in gastric contents (radioimmunoassay, bioassay)
Experimental: PGE2 was measured by direct radioimmunoassay using antisera generated in rabbits by immunization of PGE2 linked to bovine thyroglobulin. For additional confirmation of PGE2 measurements, samples were also subjected to bioassay. After addition of approximately 5000 CPM of ^3H-labeled PGE2 for recovery calculations, samples were adjusted to pH 4.3 with 0.5 M phosphate buffer and extracted twice with ethyl acetate. The organic layer was subjected to thin layer chromatography (benzene:dioxane:acetic acid, 90:60:3), and the PGE2 fraction was extracted with methanol, dried and reconstituted in 0.9% NaCl for assay. A bioassay cascade (according to Vane) was used to assay simultaneously the samples in 2 aliquot sizes and on 3 rat stomach strips. The concentration of PGE2 in the gastric contents were measured in 2 groups of rats 30 or 60 minutes following intragastric installation of 1 ml of 120 mM arachidonic acid or 1 ml PL in order to determine the extent of arachidonic acid conversion to PGE2 by the gastric mucosa. The spontaneous release of PGE2 into the gastric lumen was assessed in animals receiving PL pretreatment only. In addition, PGE2 concentration in the original 120 mM arachidonic acid solution was measured before intragastric instillation.

gastric mucosa [8] = assay: Study 5: arachidonic acid mucosal protection against taurocholic acid; conditions: 1 ml 120 mM AA in PL; 3 ml 80 mM TCA in 0.1 n HCl twice; 3 hours after second TCA dose
Experimental: as §1
Rats were given intragastric treatment by peroral tube with 1 ml of PL solution or 1 ml of PL solution containing 120 mM arachidonic acid (AA). The rats then received, intragastrically, 3 mls of a 80 mM solution of taurocholic acid (TCA) dissolved in 0.1 n in HCI, adminstered twice: one or two hours after PL or AA pretreatment. Animals were sacrificed 3 hours after second TCA administration.
Gastric mucosa was assessed macroscopically and histologically for damage in a similar manner as in studies with ethanol. […] These lesions corresponding histologically to necrotic lesions were similar to those seen after ethanol.

liver = assay: Study 7: liver protection against ethanol, electron microscopy of hepatocytes; conditions: 1 ml 120 mM AA (37 mg) in PL by gavage 1 hour before 2.5 ml 100% ethanol; sacrificed 24 hours later
Experimental: 40 rats were given, by gavage, either 1 ml of 5 mM PL solution (as a control) or a 1 ml of 120 mM arachidonic acid in the 5 mM PL solution. One hour later the rats were given 2.5 ml of 100% ethanol and the animals sacrificed 24 hours later.
The liver was then removed and specimens fixed for 2 hours in 3.5% purified glutaraldehyde (buffered in 0.1 M phosphate of 7.4). The liver specimens were washed with buffer and postfixed in 1% osmium tetroxide at 0°C for 1 hour. After dehydration with graded ethanol the tissue was embedded in epoxy resin. Silver gray thin sections of the specimen were double stained with 2% uranyl acetate followed by lead citrate and examined with an RCA electron microscope.

[9] = 1 ml 240 mM in 5 mM PL intragastric pretreatment
[10] = histology 3 hours after 2 ml absolute ethanol, pretreated with 1 ml 120 mM AA+PL 1 hour before

edema in the forestomach (gastric mucosa [1]; macroscopic, group pretreated with linoleic acid): marked edema in the forestomach
Compound: CCCCC/C=C\C/C=C\CCCCCCCC(=O)O [LLC, linoleic acid]
macroscopic hemorrhagic lesions, % of glandular mucosal area (gastric mucosa [1]; 1 ml 120 mM in 5 mM PL intragastric pretreatment): 6.5±1%
macroscopic hemorrhagic lesions, % of glandular mucosal area (gastric mucosa [1]; [9]): 1.3±0.5%
Mucosal histology: deep necrotic lesions (gastric mucosa [1]): no deep necrotic lesions were present
Macroscopic mucosal changes (lesion index, number of lesions x severity) (gastric mucosa [2]): 8±1
Histologic evaluation: deep necrotic lesions (gastric mucosa [2]): deep necrotic lesions did not occur
Mucosa by scanning electromicroscopy (gastric mucosa [2]): nearly normal mucosa

Compound: CCCCCCCC/C=C\CCCCCCCC(=O)O [oleic acid, reference compound]
macroscopic hemorrhagic lesions, % of glandular mucosal area (gastric mucosa [1]; [9]): 29.1±3%
Mucosal histology: deep necrotic lesions (gastric mucosa [1]): deep hemorrhagic necrotic lesions penetrating into muscularis mucosa were present

Compound: CCCCC/C=C\C/C=C\C/C=C\C/C=C\CCCC(=O)O [AA, arachidonic acid]
Hemorrhagic area*(%) (gastric mucosa [3]; 1 ml 30 mM AA in 5 mM PL by gavage 1 hour before 2 ml ethanol, stomach evaluated 3 hours after ethanol): 15.4%
Hemorrhagic area*(%) (gastric mucosa [3]; 1 ml 60 mM AA in 5 mM PL by gavage 1 hour before 2 ml ethanol, evaluated 3 hours after ethanol): 3.0%
Hemorrhagic area*(%) (gastric mucosa [3]; 1 ml 120 mM AA in 5 mM PL by gavage 1 hour before 2 ml ethanol, evaluated 3 hours after ethanol): 0.6%
Hemorrhagic area*(%) (gastric mucosa [3]; Group E: 1 ml 120 mM AA in 5 mM PL by gavage 30 minutes before 2 ml ethanol, evaluated 3 hours after ethanol): 0.8%
Hemorrhagic area*(%) (gastric mucosa [4]): 0.6%
Hemorrhagic area*(%) (gastric mucosa [5]; 1 ml 120 mM AA intragastrically): 5.3%
Hemorrhagic area*(%) (gastric mucosa [5]; 1 ml 120 mM AA intrajejunally): 28.1%
Histological changes of gastric mucosa after the acid alone (gastric mucosa [6]; 60 minutes after intragastric 1 ml 120 mM arachidonic acid, no ethanol): did not change the appearance of the gastric mucosa
Edema of submucosa accumulation of polymorphonuclears (gastric mucosa [6]; [10]): Present
Hemorrhagic erosions (gastric mucosa [6]; [10]): Absent
The surface epithelium layer (gastric mucosa [6]; [10]): Present, continuous (minor focal defects seen occasionally)
Mucosal surface by scanning electronmicroscopy (gastric mucosa [7]): nondisrupted and normal appearance
values of PGE2 in the gastric content higher than in animals that received PL only (PGE2; 30 and 60 minutes after intragastric instillation, relative to PL group): 5,000-13,000
PGE2 concentration (ng/ml) (PGE2; gastric contents 30 min after intragastric instillation of 1 ml 120 mM AA): 7360.0* ng/ml
PGE2 concentration (ng/ml) (PGE2; gastric contents 60 min after intragastric instillation of 1 ml 120 mM AA): 4100.0* ng/ml
mucosal lesions, macroscopically and histologically (gastric mucosa [8]): not detectable
Macroscopic mucosal changes (lesion index, number of lesions x severity) (gastric mucosa [2]): 2±0.3
Histologic evaluation: deep necrotic lesions (gastric mucosa [2]): deep necrotic lesions did not occur
Mucosa by scanning electromicroscopy (gastric mucosa [2]): nearly normal mucosa
ultrastructural changes in the hepatocytes (liver): most of the alcohol induced changes were virtually prevented
